{"source": "patent US5075327A", "about": "“Antipsoriatic agents” (Hoffmann-La Roche Inc., priority 1988, dated 1991)", "key": {"human keratinocytes": {"system": "human keratinocytes", "assay": "Inhibition of proliferation of cultured human keratinocytes (cell count by Coulter Counter)", "type": "cell-based", "conditions": "for inhibition at 1 µM / inhibition at 0.1 µM / inhibition at 0.01 µM: Homo sapiens, Keratinocyte; for inhibition at 1 µM: 10^-6 M; for inhibition at 0.1 µM: 10^-7 M; for inhibition at 0.01 µM: 10^-8 M; for Percent Inhibition on Keratinocyte Proliferation: ^ 10^-10 M", "protocol": "Human neonatal foreskins were collected by circumcision and placed into tubes containing DMEM media. Upon arrival at the laboratory the foreskins were mechanically trimmed of excess dermis and treated with a solution of trypsin/EDTA (0.05%/0.02%) at 4° C. overnight. The epidermis was stripped from the dermis, agitated in buffered saline to remove basal keratinocytes and the stratum corneum buffer was removed. The separated cells were centrifuged, resuspended in media, counted and the cells were plated onto a plain plastic material layer.\nThe keratinocytes were plated at a density of approximately about 10^5 cells/cm^2 in 35 cm^2 dishes. The cells were grown in keratinocyte growth media (KGM-modified MCDB 153 containing […] by Clonetics of Boulder, Colo.) according to protocols originally developed by Boyce, S. T. and Ham, R. G., J. of Tissue Culture Meth. 9:83-93 (1985). The cells were grown for 5-10 days and changed every 2-3 days with keratinocyte growth media with 1.5 mM CaCl2 (hereinafter KGM/1.5 mM CaCl2) until cells reached a 75% confluency by visual observation. All the cultures were incubated in a humidified atmosphere of 5% CO2 at 37° C.\nTo establish keratinocyte cell cultures as antiproliferative assays, cells prepared as described in the foregoing were washed with PBS and removed from the culture surface with a solution of trypsin/EDTA (0.25%/0.03%). The removed cells were then centrifuged resuspended in the KGM/1.5 mM CaCl2 and counted. The cells were then distributed to 6 well plates at 100,000 cells per well as described in the foregoing. […] After 24-48 hours the cells were changed into KGM/1.5 mM CaCl2. Test compounds were added one to two days later and the cultures maintained for seven days. The media was changed every 2-3 days.\nSolutions of the test compounds were prepared as follows: 1 milligram quantities were received in amber glass vials, and stored at -20° C. Sufficient 100% ethanol was added directly to vials to obtain a millimolar solution that was subsequently aliquoted into small amber vials, overlayed with argon gas and stored at -20° C. Each stock solution was thawed once, used and discarded. Aliquots from the stock solutions were diluted directly into medium and then serially diluted from micromolar to 10^-12 M concentrations. Dilutions from 10^-8 M to 10^-12 M had ethanol added for a final concentration of 0.1%. Stock solutions were used within one month. Control cultures were treated with 0.1% ethanol.\nFor each experiment every culture well received the same number of cells from the same culture source. At the termination of the experiment the number of cells per was determined by the following procedure. Wells were washed twice with PBS and then incubated for approximately 10-20 minutes at 37° C. with a trypsin/EDTA solution (0.25%/0.03%). PBS plus 0.1% […] was added and the cells were suspended. An aliquot of the cells was placed into isotonic buffered saline and counted on an electronic particle counter (e.g. Coulter Counter® device by Coulter Electronics of Hialeah, Fla.).\nFor statistical analysis, the mean was calculated for all wells in each treatment group. Standard error was determined by nonbiased analysis using a value for the number of wells in each group, preferably N=3.\nQuantification of proliferation was done by enumerating the number of keratinocyte cells in each well using the Coulter Counter®. Results shown in Table 1 below show the percent reduction or inhibition of keratinocyte cells calculated for each of 4 concentrations of the compounds tested according to the formula: [formula]\nEach compound was tested in triplicate. The control (ETOH), as noted above, was 0.1% ethanol."}, "human keratinocyte cells": {"system": "human keratinocyte cells", "assay": "Toxicity to keratinocytes in the proliferation assay", "type": "cell-based", "conditions": "10^-6 M; keratinocyte cells in vitro"}, "[1]": {"system": "cholesterol biosynthesis in HepG2 cells", "assay": "Inhibition of cholesterol biosynthesis in HepG2 cells (3H2O incorporation into cholesterol)", "type": "cell-based", "conditions": "for IC50: Homo sapiens", "protocol": "HepG2 cells are maintained in 175 cm^2 T flasks in Darlington Medium supplemented with 10% fetal bovine serum (FBS). Darlington Medium consists of 3 parts Minimal Essential Medium, 1 part Waymouth's MAB87/3 medium and 3×10^-8 M sodium selenite. This medium is supplemented with 100 U/ml penicillin, 100 ug/ml streptomycin and 2.5 ug/ml Fungizone. In order to establish optimal conditions for the whole cell cholesterol biosynthesis assay, preliminary experiments were performed. 0.25, 0.5, 0.75 or 1×10^6 cells were seeded into 6 well cluster plates in 2 ml of fully supplemented Darlington Medium. The serum supplemented medium was aspirated after 72 hours and replaced with serum free Darlington Medium with antibiotics. After 24, 48 or 72 hours serum free, the cells received either 0.5 or 1 mCi ^3 H2 O/ml medium. This medium was aspirated after 24 hours and the cells were washed twice with phosphate buffered saline. The cells were frozen overnight at -20° C. after which they were harvested from the wells with 1 ml of trypsin-EDTA. Extracted lipids were separated on an HPLC system; cholesterol peaks were collected and counted in a scintillation counter. Results are expressed as the dpm ^3 H2 O incorporated into cholesterol.\nIn the screening assay the cells received compounds at various concentrations concommitantly with ^3 H2 O. When ethanol was the vehicle, the final ethanol concentration was 0.5%, and control wells with that concentration of ethanol were used in each experiment. Results are expressed as the percent dpm ^3 H2 O incorporated into cholesterol in treated vs control wells. IC50 values are calculated using a linear regression analysis."}, "cholesterol biosynthesis": {"system": "cholesterol biosynthesis", "conditions": "U.S. Pat. No. 4,450,171, col. 1, lines 43-51; cited from earlier work"}, "[2]": {"conditions": "168 h, 7 days, N = 3, read-out: Percent Inhibition on Keratinocyte Proliferation"}}, "note": "Like-named read-outs stand apart in the source and are kept apart here."}
{"molecule": "CC(=O)O[C@H]1CCCC2=CCC[C@H](CCC=O)[C@]21C", "note": "[Compound B, [1S-(1α,8β,8aβ)]-8-(2-formylethyl)-8a-methyl-1,2,3,4,6,7,8,8a-octahydro-1-naphthalenol-acetate]", "values": [{"measurement": "inhibition at 1 µM", "setting": "human keratinocytes; [2]", "result": 19.5, "unit": "%"}, {"measurement": "inhibition at 0.1 µM", "setting": "human keratinocytes; [2]", "result": 31.4, "unit": "%"}, {"measurement": "inhibition at 0.01 µM", "setting": "human keratinocytes; [2]", "result": 22.9, "unit": "%"}, {"measurement": "Percent Inhibition on Keratinocyte Proliferation", "setting": "human keratinocytes; 7 days, N = 3", "result": 4.52, "unit": "%"}, {"measurement": "inhibition of cell proliferation relative to compound A", "setting": "human keratinocytes; conclusion in words", "result": "slightly greater rate than compound A"}]}
{"molecule": "CC[C@H](C)C(=O)O[C@H]1CCC=C2C=CC[C@H](CC[C@@H]3C[C@@H](O)CC(=O)O3)[C@]21C", "note": "[Compound A, [4R-(4α,6β),6[1S-[1α,8β(S), 8aα]]]-6-[2-[1,2,6,7,8,8a-hexahydro-8a-methyl-8-(2-methyl-1-oxo-butoxy)-1-naphthalenyl]-ethyl]tetrahydro-4-hydroxy-2H-pyran-2-one]", "values": [{"measurement": "inhibition at 1 µM", "setting": "human keratinocytes; [2]", "result": 17.1, "unit": "%"}, {"measurement": "inhibition at 0.1 µM", "setting": "human keratinocytes; [2]", "result": 10, "unit": "%"}, {"measurement": "inhibition at 0.01 µM", "setting": "human keratinocytes; [2]", "result": 8.24, "unit": "%"}, {"measurement": "inhibition at 1 µM", "setting": "human keratinocytes; read-out: inhibition rate of proliferation of keratinocyte cells", "result": "~20", "unit": "%"}, {"measurement": "Percent Inhibition on Keratinocyte Proliferation", "setting": "human keratinocytes; 7 days, N = 3", "result": 20.98, "unit": "%"}, {"measurement": "toxicity to the cells", "setting": "human keratinocyte cells", "result": "without toxicity to the cells"}, {"measurement": "cholesterol biosynthesis inhibition as compared to mevinolin", "setting": "[1]; HepG2 cells, Tests I and II", "result": "exhibited cholesterol biosynthesis inhibition"}, {"measurement": "IC50", "setting": "[1]; HepG2, Test I", "result": 47, "unit": "nM"}, {"measurement": "IC50", "setting": "[1]; HepG2, Test II", "result": 3810, "unit": "nM"}]}
{"molecule": "CCC(C)C(=O)OC1CC(C)C=C2C=CC(C)C(CCC3CC(O)CC(=O)O3)C21", "note": "(centres unmarked) [mevinolin, reference compound]", "values": [{"measurement": "IC50", "setting": "[1]; HepG2, Test I", "result": 20, "unit": "nM"}, {"measurement": "IC50", "setting": "[1]; HepG2, Test II", "result": 640, "unit": "nM"}, {"measurement": "activity in inhibiting cholesterol biosynthesis among the natural mevinolin compounds", "setting": "cholesterol biosynthesis", "result": "most active member"}]}
